This note sets out measurements from ChEMBL document CHEMBL6083254, “Optimization of B-Ring-Functionalized Antimalarial Tambjamines and Prodiginines” (J Med Chem, 2024).

One may read the IC50 as the concentration needed to halve the response being measured. By ED50 is commonly meant the dose at which the effect has come halfway, by size or by number of responders. One may read the half-life as how long it takes for the measured level to halve. For orientation: microsomal CLint means the rate of metabolic loss divided by the concentration. The solubility is how much of the substance goes into solution per volume.

One data set concerns HepG2. The data set can be described thus: (§1) Cytotoxicity against human HepG2 cells assessed as cell viability incubated for 72 hrs by MTT assay. Type of data set: toxicity, cell-based. Conditions: hepg2.
In data set [1] the test system is Plasmodium yoelii. The data set can be described thus: Antiplasmodial activity against asexual erythrocytic stage of Plasmodium yoelii infected in female CFI mouse model assessed as reduction in parasitemia at 25 mg/kg, po administered once daily for 4 days and measured on day 5 by Giemsa staining based microscopic analysis relative to control. Conditions: time 5 day. In kind it is functional. Set-up: scale not given: the % may be the effect or the level left.

For data set [2], the system named is Plasmodium yoelii. The data set can be described thus: Antiplasmodial activity against asexual erythrocytic stage of Plasmodium yoelii infected in po dosed female CFI mouse model assessed as reduction in parasitemia administered once daily for 4 days and measured on day 5 by Giemsa staining based microscopic analysis. In kind it is functional. Particulars: 120 h, time 5 day.

Data set [3] has as its system Plasmodium yoelii. The data set can be described thus: Antiplasmodial activity against asexual erythrocytic stage of Plasmodium yoelii infected in female CFI mouse model assessed as reduction in parasitemia at 1 mg/kg, po administered once daily for 4 days and measured on day 5 by Giemsa staining based microscopic analysis relative to control. Type of data set: functional. Further details: scale not given: the % may be the effect or the level left.

The test system of data set [4] is Plasmodium yoelii. Description: Antiplasmodial activity against asexual erythrocytic stage of Plasmodium yoelii infected in female CFI mouse model assessed as reduction in parasitemia at 3 mg/kg, po administered once daily for 4 days and measured on day 5 by Giemsa staining based microscopic analysis relative to control. Type of data set: functional. Further details: scale not given: the % may be the effect or the level left.

Data set [5] concerns Plasmodium yoelii. Description: Antiplasmodial activity against asexual erythrocytic stage of Plasmodium yoelii infected in female CFI mouse model assessed as reduction in parasitemia at 10 mg/kg, po administered once daily for 4 days and measured on day 5 by Giemsa staining based microscopic analysis relative to control. Further details: scale not given: the % may be the effect or the level left. In kind it is functional.

The subject of data set [6] is Plasmodium yoelii. Description: Antiplasmodial activity against asexual erythrocytic stage of Plasmodium yoelii infected in female CFI mouse model at 10 mg/kg, po administered once daily for 4 days and measured on day 5 by Giemsa staining based microscopic analysis. In kind it is functional, organism-based. Particulars: time 5.0 day.
Another data set can be described thus: in vitro. Particulars: human.
The subject of data set [7] is Plasmodium falciparum. The data set can be described thus: microbe, parasite or virus in culture. Particulars: D6, 72 h.
The subject of data set [8] is Plasmodium falciparum. Description: microbe, parasite or virus in culture. Particulars: Dd2, 72 h.
Data set [9] has as its system Plasmodium falciparum. The data set can be described thus: microbe, parasite or virus in culture. Conditions: Tm90-C2B, 72 h.
The nature of data set [10]: as §1. In kind it is toxicity, cell-based. Particulars: human, HepG2 cells.
Data set [11] has as its system Plasmodium yoelii. The data set can be described thus: Antiplasmodial activity against asexual erythrocytic stage of Plasmodium yoelii infected in female CFI mouse model at 25 mg/kg, po administered once daily for 4 days and measured on day 5 by Giemsa staining based microscopic analysis. In kind it is functional, organism-based. Particulars: time 5.0 day.
The nature of data set [12]: Metabolic stability in human liver microsomes assessed as half life measured upto 60 mins LC-MS analysis. On the technique in general: Microsomes from liver hold many membrane-bound enzymes, among them those of drug oxidation.
Data set [13] is described as follows: Metabolic stability in mouse liver microsomes assessed as half life measured upto 60 mins LC-MS analysis.
The nature of data set [14]: Metabolic stability in human liver microsomes assessed as intrinsic clearance measured upto 60 mins LC-MS analysis.
Data set [15] can be described thus: Metabolic stability in mouse liver microsomes assessed as intrinsic clearance measured upto 60 mins LC-MS analysis.
Data set [16] can be described thus: Aqueous solubility of compound in PBS buffer at pH 7.4 incubated for 90 mins by UV-vis spectroscopic analysis. Conditions: pH 7.4, 1.5 h.
The mark [17] stands for this setting: Plasmodium yoelii, po, read-out: ED50.

“And” between values parts separate entries of the source, which are not always exact repeats. Equal entries are not always repeated. The source made the active and inactive calls. No cut-off for these calls is given here.

Description for in vitro: Selectivity index, ratio of IC50 for cytotoxicity against human HepG2 cells assessed as cell viability to IC50 for antiplasmodial activity against asexual erythrocytic stage of Plasmodium falciparum D6 assessed as inhibition of parasitic growth incubated

Take `CCCCCc1cc(/C=C2\N=C(c3ccc[nH]3)C=C2OCC)[nH]c1C.Cl`: the IC50 with HepG2 came out at 3680 nM; with Plasmodium falciparum [7], 2.45 nM; in the data set on Plasmodium falciparum [8] it was 1.31 nM; with Plasmodium falciparum [9], 7.29 nM. The Activity in the data set with Plasmodium yoelii [1] is on record as 100%; in the data set on Plasmodium yoelii [3] (time 5 day), 2.1%; in the data set with Plasmodium yoelii [4] (time 5 day) it was 46.6%; with Plasmodium yoelii [5] (time 5 day) it was 100%. Further, the results for the 50% effective dose (ED50) in the data set on Plasmodium yoelii [2] (setting [17]) and with Plasmodium yoelii [2] were 3.12 mg/kg/day and 5.61 mg/kg/day, respectively. In addition, in the data set with Plasmodium yoelii [6], the result was inactive. In addition, in “in vitro”, the selectivity ratio amounted to 1500.
`CCCCCCCCCCCC1=N/C(=C\c2[nH]c(-c3ccc[nH]3)cc2OC)C=C1` [UNDECYLPRODIGININE]: in [10], the half-inhibitory concentration (IC50) at 72 h amounted to 1710 nM. In the data set with Plasmodium yoelii [1], the Activity is 100%. For the same compound, the outcome in the data set with Plasmodium yoelii [3] (time 5.0 day), in the data set with Plasmodium yoelii [4] (time 5.0 day) and in the data set on Plasmodium yoelii [5] (time 5.0 day) was inactive. Further, the result in the data set on Plasmodium yoelii [11] was Active. The selectivity ratio in “in vitro” is 237. Besides, the IC50 with Plasmodium falciparum [7] was 7.22 nM; in the data set on Plasmodium falciparum [8] it was 7.54 nM; with Plasmodium falciparum [9], 8.21 nM.
Turning to `CCCCCc1cc(/C=C2\N=C(c3ccc[nH]3)C=C2OCCC)[nH]c1C.Cl`, the IC50 was determined as 3560 nM in the data set with HepG2, 0.307 nM in the data set on Plasmodium falciparum [7], 0.501 nM in the data set on Plasmodium falciparum [8] and 4.58 nM with Plasmodium falciparum [9]. Further, the Activity in the data set on Plasmodium yoelii [1] amounted to 100%; with Plasmodium yoelii [3] (time 5 day) it was 23.9%; with Plasmodium yoelii [4] (time 5 day) it was 89.9%; in the data set with Plasmodium yoelii [5] (time 5 day) it was 100%. Further, the ED50 with Plasmodium yoelii [2] was 1.46 mg/kg/day and 3 mg/kg/day. Also, the result in the data set on Plasmodium yoelii [6] was inactive. Moreover, the half-life at 1 h in data set [12] was 43.6 min; in data set [13], 34 min. Further, the microsomal CLint at 1 h in data set [14] amounted to 31.8 µL/min/mg; in data set [15], 40.8 µL/min/mg. Further, the solubility in [16] was found to be 18.5 µM. Besides, in the data set “in vitro”, the selectivity ratio is 11600.
For `CCCCCCCCCCCc1ccc(/C=C2\N=C(c3ccc[nH]3)C=C2Oc2ccccc2)[nH]1.Cl`, in [10], the IC50 at 72 h is above 200000 nM. The Activity with Plasmodium yoelii [1] is on record as 100%. Besides, the result in the data set on Plasmodium yoelii [3] (time 5.0 day), in the data set on Plasmodium yoelii [4] (time 5.0 day), with Plasmodium yoelii [5] (time 5.0 day) and in the data set with Plasmodium yoelii [11] was inactive. For the same compound, the half-life at 1 h in [12] came out at 59.2 min; in [13], 16.2 min. Moreover, the microsomal CLint at 1 h in [14] stood at 23.4 µL/min/mg; in data set [15], 85.7 µL/min/mg. Moreover, the solubility in data set [16] is 8.19 µM. In the data set “in vitro”, the selectivity ratio was above 2440. For the same compound, the IC50 is 80.9 nM with Plasmodium falciparum [8] and 64.3 nM with Plasmodium falciparum [9].
On to `CCCCCc1cc(/C=C2\N=C(c3ccc[nH]3)C=C2Oc2ccc(OC(F)(F)F)cc2)[nH]c1C.Cl`, for which the IC50 was 16500 nM with HepG2, 8.61 nM in the data set on Plasmodium falciparum [7], 7.4 nM in the data set with Plasmodium falciparum [8] and 9.54 nM in the data set on Plasmodium falciparum [9]. Also, the Activity with Plasmodium yoelii [1] was 100%; in the data set on Plasmodium yoelii [3] (time 5 day) it was 49.1%; in the data set with Plasmodium yoelii [4] (time 5 day), 92%; in the data set on Plasmodium yoelii [5] (time 5 day), 100%. Also, the ED50 in the data set on Plasmodium yoelii [2] (setting [17]) was found to be 1.01 mg/kg/day. Also, in the data set on Plasmodium yoelii [6], the result was inactive. Besides, the result with Plasmodium yoelii [11] was Active. For the same compound, the half-life at 1 h came to 59.4 min in data set [12] and 38 min in [13]. The values for the microsomal CLint at 1 h in [14] and in data set [15] were 23.3 µL/min/mg and 36.4 µL/min/mg, respectively. Also, in [16], the solubility is below 3.125 µM. Further, the selectivity ratio in “in vitro” worked out at 1910.
As to `CCCCCc1cc(/C=C2\N=C(c3ccc[nH]3)C=C2OC(C)C)[nH]c1C.Cl`, the IC50 in the data set with HepG2 was determined as 3480 nM; with Plasmodium falciparum [7], 1.09 nM; in the data set with Plasmodium falciparum [8], 0.27 nM; in the data set on Plasmodium falciparum [9], 1.56 nM. The Activity with Plasmodium yoelii [1] stood at 100%; in the data set with Plasmodium yoelii [3] (time 5 day), 4.2%; with Plasmodium yoelii [4] (time 5 day) it was 71.8%; with Plasmodium yoelii [5] (time 5 day) it was 100%. In addition, the ED50 with Plasmodium yoelii [2] (setting [17]) was found to be 2.25 mg/kg/day; in the data set with Plasmodium yoelii [2], 4.42 mg/kg/day. Further, the result in the data set with Plasmodium yoelii [6] was inactive. In addition, in the data set with Plasmodium yoelii [11], the result was Active. Besides, the selectivity ratio in “in vitro” stood at 3190.
Consider `CCCCCC1=C/C(=C\c2[nH]c(-c3ccc[nH]3)cc2OC)N=C1C`, for which, in [10], the IC50 at 72 h was 1070 nM. Further, the figures for the half-life at 1 h in data set [12] and in [13] were above 60 min and 23 min, respectively. Besides, the figures for the microsomal CLint at 1 h in data set [14] and in data set [15] were 13.1 µL/min/mg and 61.2 µL/min/mg, respectively. Moreover, the IC50 in the data set on Plasmodium falciparum [7] was determined as 8.01 nM; with Plasmodium falciparum [8], 7.32 nM; in the data set with Plasmodium falciparum [9], 8.8 nM.
